Experimental findings from US8822451B2, “Modulators of ATP-binding cassette transporters” (Vertex Pharmaceuticals Incorporated, priority 2005, dated 2014) are described below.

As usually defined, the EC50 is the concentration that produces a half-maximal response.

This experiment deals with T1, […]F508-CFTR (Homo sapiens, UniProt P13569, DEL508-508).
T1 construct: expressed in transfected cells
The experiment can be described thus: Assay results of Table 3: ΔF508-CFTR modulation, membrane potential optical assay (assay format not stated). The experiment is classed as cell-based. Particulars: NIH3T3 mouse fibroblasts stably expressing […]F508-CFTR (optical assays); for Efficacy: efficacy range; for EC50: potency range. The source says: A. Membrane Potential Optical Methods for Assaying […]F508-CFTR Modulation Properties of Compounds
The optical membrane potential assay utilized voltage-sensitive FRET sensors described by Gonzalez and Tsien (See, Gonzalez, J. E. and R. Y. Tsien (1995) “Voltage sensing by fluorescence resonance energy transfer in single cells” Biophys J 69(4): 1272-80, and Gonzalez, J. E. and R. Y. Tsien (1997) “Improved indicators of cell membrane potential that use fluorescence resonance energy transfer” Chem Biol 4(4): 269-77) in combination with instrumentation for measuring fluorescence changes such as the Voltage/Ion Probe Reader (VIPR) (See, Gonzalez, J. E., K. Oades, et al. (1999) “Cell-based assays and instrumentation for screening ion-channel targets” Drug Discov Today 4(9): 431-439).
These voltage sensitive assays are based on the change in fluorescence resonant energy transfer (FRET) between the membrane-soluble, voltage-sensitive dye, DiSBAC2(3), and a fluorescent phospholipid, CC2-DMPE, which is attached to the outer leaflet of the plasma membrane and acts as a FRET donor. Changes in membrane potential (Vm) cause the negatively charged DiSBAC2(3) to redistribute across the plasma membrane and the amount of energy transfer from CC2-DMPE changes accordingly. The changes in fluorescence emission were monitored using VIPR™ II, which is an integrated liquid handler and fluorescent detector designed to conduct cell-based screens in 96- or 384-well microtiter plates.
To identify small molecules that correct the trafficking defect associated with ΔF508-CFTR; a single-addition HTS assay format was developed. The cells were incubated in serum-free medium for 16 hrs at 37° C. in the presence or absence (negative control) of test compound. As a positive control, cells plated in 384-well plates were incubated for 16 hrs at 27° C. to “temperature-correct” […]F508-CFTR. The cells were subsequently rinsed 3× with Krebs Ringers solution and loaded with the voltage-sensitive dyes. To activate […]F508-CFTR, 10 µM forskolin and the CFTR potentiator, genistein (20 µM), were added along with Cl^−-free medium to each well. The addition of Cl^−-free medium promoted Cl^− efflux in response to […]F508-CFTR activation and the resulting membrane depolarization was optically monitored using the FRET-based voltage-sensor dyes.
To identify potentiators of […]F508-CFTR, a double-addition HTS assay format was developed. During the first addition, a Cl^−-free medium with or without test compound was added to each well. After 22 sec, a second addition of Cl^−-free medium containing 2-10 µM forskolin was added to activate […]F508-CFTR. The extracellular Cl^− concentration following both additions was 28 mM, which promoted Cl^− efflux in response to […]F508-CFTR activation and the resulting membrane depolarization was optically monitored using the FRET-based voltage-sensor dyes.
Bath Solution #1: (in mM) NaCl 160, KCl 4.5, CaCl2 2, MgCl2 1, HEPES 10, pH 7.4 with NaOH.
Chloride-free bath solution: Chloride salts in Bath Solution #1 are substituted with gluconate salts.
CC2-DMPE: Prepared as a 10 mM stock solution in DMSO and stored at −20° C.
DiSBAC2(3): Prepared as a 10 mM stock in DMSO and stored at −20° C.
NIH3T3 mouse fibroblasts stably expressing […]F508-CFTR are used for optical measurements of membrane potential. The cells are maintained at 37° C. in 5% CO2 and 90% humidity in Dulbecco's modified Eagle's medium supplemented with 2 mM glutamine, 10% fetal bovine serum, 1× NEAA, […]-ME, 1× pen/strep, and 25 mM HEPES in 175 cm^2 culture flasks. For all optical assays, the cells were seeded at 30,000/well in 384-well matrigel-coated plates and cultured for 2 hrs at 37° C. before culturing at 27° C. for 24 hrs for the potentiator assay. For the correction assays, the cells are cultured at 27° C. or 37° C. with and without compounds for 16-24 hoursB.

SMILES strings stand for the structures.

T1 sequence (P13569 with tags, fused parts or gaps DEL508-508): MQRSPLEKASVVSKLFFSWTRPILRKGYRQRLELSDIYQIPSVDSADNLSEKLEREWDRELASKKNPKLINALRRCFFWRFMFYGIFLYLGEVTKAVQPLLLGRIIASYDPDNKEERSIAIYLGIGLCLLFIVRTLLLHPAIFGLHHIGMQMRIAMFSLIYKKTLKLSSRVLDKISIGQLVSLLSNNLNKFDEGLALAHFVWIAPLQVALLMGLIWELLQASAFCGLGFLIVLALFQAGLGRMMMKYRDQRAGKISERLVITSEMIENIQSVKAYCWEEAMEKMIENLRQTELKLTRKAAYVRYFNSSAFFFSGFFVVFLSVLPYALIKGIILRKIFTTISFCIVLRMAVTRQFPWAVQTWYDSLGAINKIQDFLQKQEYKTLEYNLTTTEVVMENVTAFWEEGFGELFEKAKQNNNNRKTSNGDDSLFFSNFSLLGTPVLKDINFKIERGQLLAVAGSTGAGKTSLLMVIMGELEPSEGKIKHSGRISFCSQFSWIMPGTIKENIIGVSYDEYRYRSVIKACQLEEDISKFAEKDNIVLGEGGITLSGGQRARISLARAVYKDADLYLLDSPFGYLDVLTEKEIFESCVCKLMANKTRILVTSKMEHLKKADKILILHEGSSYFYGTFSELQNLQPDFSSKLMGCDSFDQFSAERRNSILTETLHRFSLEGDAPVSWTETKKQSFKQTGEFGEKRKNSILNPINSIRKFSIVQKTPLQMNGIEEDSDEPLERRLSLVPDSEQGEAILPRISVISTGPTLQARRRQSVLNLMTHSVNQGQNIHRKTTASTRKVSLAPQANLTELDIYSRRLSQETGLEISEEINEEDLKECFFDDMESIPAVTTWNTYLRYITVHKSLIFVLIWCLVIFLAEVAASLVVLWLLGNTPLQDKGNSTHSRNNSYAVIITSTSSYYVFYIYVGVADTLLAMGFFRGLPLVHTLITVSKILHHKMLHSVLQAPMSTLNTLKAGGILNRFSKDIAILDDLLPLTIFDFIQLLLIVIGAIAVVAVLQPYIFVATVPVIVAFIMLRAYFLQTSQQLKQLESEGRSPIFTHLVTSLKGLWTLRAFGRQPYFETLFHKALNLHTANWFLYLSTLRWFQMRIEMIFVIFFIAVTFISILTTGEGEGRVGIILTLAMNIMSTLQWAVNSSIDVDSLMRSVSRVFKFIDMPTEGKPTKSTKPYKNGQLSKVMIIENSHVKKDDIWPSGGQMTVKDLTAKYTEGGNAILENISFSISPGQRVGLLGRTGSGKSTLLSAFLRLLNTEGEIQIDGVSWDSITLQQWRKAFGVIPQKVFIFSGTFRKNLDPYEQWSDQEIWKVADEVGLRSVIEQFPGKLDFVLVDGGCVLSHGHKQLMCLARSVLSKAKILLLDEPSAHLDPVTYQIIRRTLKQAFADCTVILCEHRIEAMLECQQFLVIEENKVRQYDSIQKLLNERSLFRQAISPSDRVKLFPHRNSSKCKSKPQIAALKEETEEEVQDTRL

With `CN(C)C(=O)c1cc(-c2ccccc2)nc(N2CCCCCC2)n1` [Compound 1], the Efficacy entry was “++ (++ corresponds to Efficacy between 100 and 50)”; the EC50 was above 5 µM.

Consider `CNC(=O)c1cc(-c2ccccc2)nc(NCc2ccco2)n1` [Compound 2], for which the Efficacy entry was “++ (++ corresponds to Efficacy between 100 and 50)”; the concentration for a half-maximal effect (EC50) was above 5 µM.

For the compound `NC(=O)c1cc(-c2ccccc2)nc(N2CC=C(c3ccc(Cl)cc3)CC2)n1` [Compound 3], the Efficacy result was “++ (++ corresponds to Efficacy between 100 and 50)”; the EC50 was above 5 µM.

On to `CCN(CCO)c1nc(C(N)=O)cc(-c2ccccc2)n1` [Compound 4], for which the Efficacy result is “+++ (+++ corresponds to Efficacy greater than 100)” and the EC50 is above 5 µM.

As for `CCOc1ccccc1-c1cc(C(N)=O)nc(N(CC)CC)n1` [Compound 5], the Efficacy result was “+++ (+++ corresponds to Efficacy greater than 100)” and the EC50 is below 1 µM.

For the compound `NC(=O)c1cc(-c2cccc(F)c2F)nc(N2CCCCC2)n1` [Compound 6], the Efficacy result is “++ (++ corresponds to Efficacy between 100 and 50)”; the EC50 was 1 to 5 µM.

In the case of `CCN(C)c1nc(C(N)=O)cc(-c2ccccc2)n1` [Compound 7], the Efficacy entry is reported as “+++ (+++ corresponds to Efficacy greater than 100)” and the EC50 fell in the range of 1 to 5 µM.

On to `COc1ccc(OC)c(-c2cc(C(N)=O)nc(N3CCCCC3)n2)c1` [Compound 8], for which the Efficacy result is “++ (++ corresponds to Efficacy between 100 and 50)”; the EC50 lay in the range of 1 to 5 µM.

As for `CN(C)c1nc(C(N)=O)cc(-c2ccccc2)n1` [Compound 9], the Efficacy result was “++ (++ corresponds to Efficacy between 100 and 50)”; the EC50 was above 5 µM.

As to `CCN(CC)c1nc(C(N)=O)cc(-c2ccc(C(F)(F)F)cc2)n1` [Compound 10], the Efficacy result is “++ (++ corresponds to Efficacy between 100 and 50)”; the EC50 is above 5 µM.

With `Cc1cccc(-c2cc(C(N)=O)nc(N3CCCCC3)n2)c1C` [Compound 11], the Efficacy entry is “++ (++ corresponds to Efficacy between 100 and 50)”; the EC50 fell in the range of 1 to 5 µM.

Regarding `CCN(CC)c1nc(C(N)=O)cc(-c2cc(Cl)ccc2OC)n1` [Compound 12], the Efficacy result was “++ (++ corresponds to Efficacy between 100 and 50)”; the EC50 is below 1 µM.

For the compound `CCCCN(CC#N)c1nc(C(N)=O)cc(-c2ccccc2)n1` [Compound 13], the Efficacy entry was “++ (++ corresponds to Efficacy between 100 and 50)”; the EC50 was above 5 µM.

`C=CCN(C)c1nc(C(N)=O)cc(-c2ccccc2)n1` [Compound 14]: the Efficacy entry is listed as “+++ (+++ corresponds to Efficacy greater than 100)” and the EC50 fell in the range of 1 to 5 µM.

Consider `COc1cccc(-c2cc(C(N)=O)nc(N3CC=CCC3)n2)c1` [Compound 15], for which the Efficacy result was “++ (++ corresponds to Efficacy between 100 and 50)”; the EC50 is above 5 µM.

With `NC(=O)c1cc(-c2ccccc2)nc(N2CCCCC2)n1` [Compound 16], the Efficacy entry was “++ (++ corresponds to Efficacy between 100 and 50)”; the EC50 was 1 to 5 µM.

On to `CC(C)OC(=O)c1cccc(-c2cc(C(N)=O)nc(N3CCCCC3)n2)c1` [Compound 17], for which the Efficacy result was “++ (++ corresponds to Efficacy between 100 and 50)”; the concentration giving a half-maximal response (EC50) is 1 to 5 µM.

For the compound `CN(Cc1cccnc1)c1nc(C(N)=O)cc(-c2ccccc2)n1` [Compound 18], the Efficacy entry is “++ (++ corresponds to Efficacy between 100 and 50)”; the EC50 is above 5 µM.

On to `CCCCN(CCO)c1nc(C(N)=O)cc(-c2ccccc2)n1` [Compound 19], for which the Efficacy result was “++ (++ corresponds to Efficacy between 100 and 50)”; the EC50 lay in the range of 1 to 5 µM.

For `CCOc1ccc(-c2cc(C(N)=O)nc(N(CC)CC)n2)cc1` [Compound 20], the Efficacy entry is “++ (++ corresponds to Efficacy between 100 and 50)”; the EC50 was below 1 µM.

For `CCN(CC)c1nc(C(N)=O)cc(-c2ccc(C)s2)n1` [Compound 21], the Efficacy entry is on record as “+++ (+++ corresponds to Efficacy greater than 100)” and the EC50 lay in the range of 1 to 5 µM.

Turning to `COc1ccc(-c2cc(C(N)=O)nc(N3CCCCC3)n2)cn1` [Compound 22], the Efficacy result was “++ (++ corresponds to Efficacy between 100 and 50)”; the EC50 is above 5 µM.

As to `CCCN(CCC)c1nc(C(N)=O)cc(-c2ccccc2)n1` [Compound 23], the Efficacy entry was “++ (++ corresponds to Efficacy between 100 and 50)”; the EC50 was 1 to 5 µM.

Regarding `CCN(CC)c1nc(C(N)=O)cc(-c2ccccc2Oc2ccccc2)n1` [Compound 24], the Efficacy result is “++ (++ corresponds to Efficacy between 100 and 50)”; the concentration for a half-maximal effect (EC50) was below 1 µM.

For `NC(=O)c1cc(-c2ccoc2)nc(N2CCCCC2)n1` [Compound 25], the Efficacy result is listed as “+ (+ corresponds to Efficacy less than 50)” and the EC50 is above 5 µM.

In the case of `NC(=O)c1cc(-c2ccccc2)nc(N2CCCC2)n1` [Compound 26], the Efficacy result is “++ (++ corresponds to Efficacy between 100 and 50)”; the EC50 was in the range of 1 to 5 µM.

On to `NC(=O)c1cc(-c2ccccc2)nc(NCC2CC2)n1` [Compound 27], for which the Efficacy entry was “++ (++ corresponds to Efficacy between 100 and 50)”; the EC50 is above 5 µM.

Turning to `NC(=O)c1cc(-c2ccccc2)nc(N2CCC(C(=O)c3ccc(Cl)cc3)CC2)n1` [Compound 28], the Efficacy entry is “++ (++ corresponds to Efficacy between 100 and 50)”; the EC50 is above 5 µM.

As to `CCN(CC)c1nc(C(N)=O)cc(-c2ccc(OC(F)(F)F)cc2)n1` [Compound 29], the Efficacy result was “++ (++ corresponds to Efficacy between 100 and 50)”; the EC50 is below 1 µM.

Take `CCCNc1nc(C(N)=O)cc(-c2ccccc2)n1` [Compound 30]: the Efficacy entry was “++ (++ corresponds to Efficacy between 100 and 50)”; the EC50 was above 5 µM.

As to `COc1ccc(-c2cc(C(N)=O)nc(N(C)C)n2)cc1` [Compound 31], the Efficacy entry was “+ (+ corresponds to Efficacy less than 50)” and the EC50 is above 5 µM.

As to `Cc1cccc(-c2cc(C(N)=O)nc(N3CCCCC3)n2)c1` [Compound 32], the Efficacy entry was “++ (++ corresponds to Efficacy between 100 and 50)”; the EC50 is above 5 µM.

On to `NC(=O)c1cc(-c2ccccc2)nc(N2CCSCC2)n1` [Compound 33], for which the Efficacy entry was “+++ (+++ corresponds to Efficacy greater than 100)” and the EC50 lay within 1 to 5 µM.

For the compound `CCCN(CC)c1nc(C(N)=O)cc(-c2ccccc2)n1` [Compound 34], the Efficacy result is “+++ (+++ corresponds to Efficacy greater than 100)” and the EC50 was in the range of 1 to 5 µM.

For the compound `CCN(CC)c1nc(C(N)=O)cc(-c2cccc(C(=O)OC)c2)n1` [Compound 35], the Efficacy entry is listed as “+++ (+++ corresponds to Efficacy greater than 100)” and the EC50 was below 1 µM.

Consider `CNC(=O)c1cc(-c2ccccc2)nc(N2CCCCCC2)n1` [Compound 36], for which the Efficacy result is listed as “+ (+ corresponds to Efficacy less than 50)” and the EC50 was in the range of 1 to 5 µM.

On to `NC(=O)c1cc(-c2ccccc2)nc(N2CCC(Cc3ccccc3)CC2)n1` [Compound 37], for which the Efficacy result is “++ (++ corresponds to Efficacy between 100 and 50)”; the EC50 is above 5 µM.

Take `CN(CCc1ccccc1)c1nc(C(N)=O)cc(-c2ccccc2)n1` [Compound 38]: the Efficacy entry is listed as “+++ (+++ corresponds to Efficacy greater than 100)” and the EC50 lay in the range of 1 to 5 µM.
